According to patent US6949522B2, “β-2′- or 3′-halonucleosides” (Pharmasset, Inc., priority 2001, dated 2005):
Like-named read-outs stand apart in the source and are kept apart here.

Tests used:
[1] = tested on: HIV-1 xxBRU (wild type); assay: HIV-1 RT-assay on supernatant of acutely infected human PBM cells, strain xxBRU; assay type: cell-based; details: 5 days, RT activity reduced by 90%
Experimental: (§1) Human PBM cells (1×10^6 cells/T25 flask) were PHA stimulated for 2 or 3 days, and infected with either a wild type (LAI and xxBRU) or a 3TC-resistant (xxBRU 184V) HIV-1 strain at 100 TCID50, as previously described (27). The culture was kept for 5 days in presence of test compounds at serial 1-log dilutions. Subsequently, human PBM cells were removed from the culture supernatant by centrifugation (10 minutes, 400×g, 4° C.). This clarified supernatant was tested either in the RT-assay, or in the Q-RT-PCR assay.
Virus particles present in a 1 mL aliquot of culture supernatant were concentrated by high-speed centrifugation (2 hours, 20,000×g, 4° C.). The supernatant was then removed and the virus pellet was dispensed into a 100 μL virus solubilization buffer (VSB: 0.5% Triton X-100; 0.8 M NaCl, 0.5 mM phenylmethylsulfonyl, 20% glycerol, 50 mM Tris.HCl pH 7.8). A 10 μL aliquot of RT-VSB was mixed with 75 μL RT cocktail (60 mM Tris.HCl pH 7.8, 12 mM MgCl2, 6 mM DTT, 6 μg/mL poly (rA)n-oligo (dT)10-12, 1.2 mM dATP, and 80 μCi/mL 3H-TTP) and incubated for 2 hours at 37° C. Subsequently 100 μL of 10% TCA was added, and the total amount of incorporated 3H-TTP was determined.
(§2) HIV-1 present in culture supernatant fluids was quantified by two different methodologies: i) the Q-RT-PCR with read-out in log copies/mL; and ii) the endogenous viral RT assay on cell supernatant with read-out in log counts per minute/mL (CPM/mL). Upon addition of antiviral compounds to the culture media, a dose-related decrease in virus production was observed. Although the two methodologies measured different parameters (viral RNA versus active RT enzyme), results were not markedly different from each other. The HIV-1 Q-RT-PCR results were compared with a previously established cell-based antiviral drug evaluation assay (endogenous HIV-1 RT polymerization activity in cell supematant)(27).

[2] = tested on: rRNA gene; assay type: cell-based, human; details: HepG2, 10 μM, 7 days
Experimental: Low passage number HepG2 cells, obtained from American Tissue Culture Collection (ATCC, Manassas, Va.) were seeded at 5,000 cells/well in collagen-coated 96-well plates. Test compounds were added to the media to obtain a final concentration of 10 μM. On culture day 7, cellular nucleic acids were prepared by using commercially available columns (RNeasy 96 kit, Qiagen).
The rRNA gene primers and probes were purchased from Applied Biosystems. […] The comparative Ct method uses arithmetic formulas in which the amount of target (COXII gene) is normalized to an endogenous reference (β-actin gene or rRNA gene) and is relative to a calibrator (no drug control at day 7). The arithmetic formula for this approach is given by 2-ΔΔCt (User bulletin # 2, Applied Biosystems).
In order to study the consequences of possible inhibitory effects of these compounds on host DNA polymerases, nuclear and rnitochondrial DNA levels were quantified and compared to no-treatment controls. Cells were incubated for 7 days with 10 μM of each compound, followed by total nucleic acid extractions and multiplex Q-PCR of the rRNA gene and the mitochondrial COXII gene. Nucleic acids from cells exposed to the control compounds were also amplified in multiplex for mitDNA and the β-actin gene.

[3] = tested on: HIV-1 xxBRU (wild type); assay: HIV-1 Q-RT-PCR assay in human PBM cells, strain xxBRU; assay type: cell-based; details: 5 days, viral RNA reduced by 90%
Experimental: as §1
Viral RNA present in the culture supernatant was prepared using commercially available columns (QIAamp Viral RNA mini Kit, Qiagen, Valencia, Calif.). Viral RNA was detected in real-time by monitoring increases in fluorescence signal that resulted from degradation of a quenched fluorescent probe molecule following the hybridization of the probe to the arnplified viral DNA (TaqMan 7700 chemistry, Applied Biosystems, Foster City, Calif.). The TaqMan probe and primers were designed using the Primer Express software (Applied Biosystems); they cover highly conserved sequences complementary to an 81 base pair long fragment from the HIV-1 RT gene between codon 230 and 257 of the group MHIV-1 genome; • probe 5′-6FAM-[…]-TAMRA-3′ (Sequence 1) • sense primer: 5′-[…]-3′ (Sequence 2); and • antisense primer 5′-[…]-3′ (Sequence 3).
A total of 5 μL RNA was RT-amplified using reagents and conditions as described by the manufacturer (Applied Biosystems). […] Copy numbers were calibrated using the Roche Amplicor HIV-1 Monitor test™ (Roche Diagnostics, Branchburg, N.J.) on a 1-log dilution series of a clinical HIV-1 genotype B isolate (attenuated in vitro to obtain a high viral load). The 10-6 diluted sample became positive at threshold cycle (Ct=PCR cycle threshold where a sample becomes detectable)=35.52, which corresponded to 1,410 copies/mL in the Roche monitor HIV-1 version II assay. When validated over a dynamic range of 3 logs of virus, there was excellent correlation (r2˜1) between the two methodologies. […] Therefore, the currently designed primer and probe set allowed reliable quantification of both clinical samples and HIV-1 in vitro preparations.
as §2

[4] = tested on: HepG2; assay: Toxicity assay (MTS/MTT dye), HepG2 cells; details: for Cytotoxicity HepG2 IC30: HepG2, three day-incubation (Table 1); for IC50: read-out: Cytotoxicity HepG2 IC50, HepG2, three day-incubation (Table 3)
Experimental: After a three day-incubation for HepG2, or 5 days for human PBM cells, cell viability and mitochondrial activity were measured in a colorimetric assay using the MTS- or MTT dye method (Promega, Madison, Wis.).

[5] = tested on: HBV; assay: HBV Q-PCR assay in HepAD38 (AD38) cells; assay type: cell-based, hepatitis B virus; details: for EC90: read-out: HBV assay Q-PCR EC90
Experimental: The HepAD38 cell line replicates HBV under conditions that can be regulated with tetracycline (12, 15). In the presence of this drug, the cell supernatant is virtually free of viral DNA, but upon the removal of tetracycline from the culture medium, these cells secrete virus-like particle into the supernatant (12). HepAD38 cells were seeded at 5×10^4 cells/well in a 96-well plate in seeding medium (DMEM/F12+10% FBS, 50 μg/mL penicillin, 50 μg/mL streptomycin, 100 μg/mL kanamycin, 400 μg/mL G418, and 0.3 μg/mL tetracycline) and incubated for 2 days at 37° C. in a 5% CO2 humid atmosphere. The seeding media was removed, and cells were washed 3 times with PBS. Cells were then incubated with 200 μL assay medium (DMEM/F12+10% FBS+P/S/K) containing either no compound, test compound, or control drugs at 10 μM. After a 5-day incubation, the cell supernatant was collected and stored at −70° C. until HBV DNA was quantified. HBV DNA was extracted from supernatant using QiaAmp DNA blood Mini kit (Qiagen) and nucleic acids eluted in 200 μL. Viral DNA was detected in Q-PCR. The TaqMan probe and primers were designed using the Primer Express software (Applied Biosystems) and cover highly conserved sequences complementary to the DNA sequences present in HBsAg (24). A total of 5 μL DNA was amplified using reagents and conditions as described by the manufacturer (Applied Biosystems). […]

[6] = Human immunodeficiency virus 1, PBMC, 120 h
[7] = AD38 cells, 5-day incubation, HBV DNA in supernatant

| Structure (SMILES) | EC90 [1, 6] | Average ΔCt ± SD rDNA [2] | Average ΔΔCt ± SD rDNA-β-actin [2] | EC90 [3, 6] | Cytotoxicity HepG2 IC30 [4] | reduction of release of HBV DNA in the supernatant ([5]; 10 μM, 5 days, HepAD38 cells) | EC90 [5, 7] | EC90 ([5]; Hepatitis B virus, HePAD38, 120 h, AD38 cells, 5-day incubation, HBV DNA in supernatant) | EC90 ([5]; Hepatitis B virus, HePAD38, 120 h) | EC90 [1] | IC50 [4] | EC90 [3] |
| --- | --- | --- | --- | --- | --- | --- | --- | --- | --- | --- | --- | --- |
| Cc1cn([C@H]2C[C@H](N=[N+]=[N-])[C@@H](CO)O2)c(=O)[nH]c1=O [AZT, 3′-azido-3′-deoxythymidine, reference compound] | 0.01 µM | 0.86 ± 0.55 | 0.76 ± 0.87 | 0.01 µM |  |  |  |  |  |  |  |  |
| Nc1ccn([C@@H]2CS[C@H](CO)O2)c(=O)n1 [Compound 3TC, (−)-β-2′,3′-dideoxy-3′-thiacytidine, reference compound] | 0.08 µM | 0.47 ± 0.51 | 0.36 ± 0.66 | 0.06 µM | >100 µM | ~1.5 log | 3 µM | 2.9 µM |  |  |  |  |
| Nc1ccn([C@@H]2C=C(F)[C@H](CO)O2)c(=O)n1 [Compound 10, 1-(2,3-Dideoxy-3-fluoro-β-L-glycero-pent-2-eno-furanosyl)cytosine] | 35.5 µM | −0.08 ± 0.50 |  | 35.4 µM | >100 µM |  |  |  | ≥ 100 µM |  |  |  |
| Nc1ccn([C@@H]2C=C(F)[C@H](CO)O2)c(=O)n1 [Compound 23, 1-(2,3-Didcoxy-3-fluoro-β-L-glycero-pent-2-eno-furanosyl)cytosine] |  | −0.51 ± 0.35 |  |  |  |  | 1 µM |  |  | 0.14 µM | > 100 µM | 0.6 µM |
| Nc1ccn([C@@H]2S[C@H](CO)C=C2F)c(=O)n1 [Compound D-17, (−)-1-[(1S,4R)-2,3-dideoxy-2,3-didehydro-2-fluoro4-thio-β-D-ribofuranosyl]-cytosine] |  | 0.81 ± 0.60 |  |  | >100 µM |  | > 100 µM |  |  | 5 µM | > 100 µM | 5.2 µM |
| Nc1nc(=O)n([C@@H]2S[C@H](CO)C=C2F)cc1F [Compound D-18, (−)-1-[(1S,4R)-2,3-dideoxy-2,3-didehydro-2-fluoro-4-thio-β-D-ribofuranosyl]-5-fluorocytosine] |  | −0.45 ± 0.60 |  |  | >100 µM |  | > 100 µM |  |  | 119 µM | > 100 µM | 73.9 µM |
| Nc1ccn([C@H]2S[C@@H](CO)C=C2F)c(=O)n1 [Compound L-17, (+)-1-[(1S,4R)-2,3-dideoxy-2,3-didehydro-2-fluoro-4-thio-β-L-ribofuranosyl]-cytosine] |  | 0.49 ± 0.77 |  |  | >100 µM |  | > 100 µM |  |  | 1.4 µM | > 100 µM | 2.1 µM |
| Nc1nc(=O)n([C@H]2S[C@@H](CO)C=C2F)cc1F [Compound L-18, (+)-1-[(1S,4R)-2,3-dideoxy-2,3-didehydro-2-fluoro-4-thio-β-L-ribofuranosyl]-5-fluoro-cytosine] |  | 0.10 ± 0.44 |  |  | >100 µM |  | > 100 µM |  |  | 1.1 µM | > 100 µM | 0.94 µM |
